Paper PMC5680195, “Structural basis of small molecule ATPase inhibition of a human mitotic kinesin motor protein” (Scientific Reports, 2017)

How the values were obtained:
KIFC1 = target: T1, KIFC1 (Homo sapiens, UniProt Q9BW19, T368P); test: X-ray crystal structure, […] A; details: Mg2+; nucleotide-binding cleft; 5-fold molar excess Mg-ADP added; pH 7.5; 18 °C
T1 construct: motor domain N307-C663 with PCR-induced T368P (loop L2, disordered), pFBOH-LIC, Hi-Five insect cells, Ni-NTA purified
T1 sequence (Q9BW19 307-663 T368P): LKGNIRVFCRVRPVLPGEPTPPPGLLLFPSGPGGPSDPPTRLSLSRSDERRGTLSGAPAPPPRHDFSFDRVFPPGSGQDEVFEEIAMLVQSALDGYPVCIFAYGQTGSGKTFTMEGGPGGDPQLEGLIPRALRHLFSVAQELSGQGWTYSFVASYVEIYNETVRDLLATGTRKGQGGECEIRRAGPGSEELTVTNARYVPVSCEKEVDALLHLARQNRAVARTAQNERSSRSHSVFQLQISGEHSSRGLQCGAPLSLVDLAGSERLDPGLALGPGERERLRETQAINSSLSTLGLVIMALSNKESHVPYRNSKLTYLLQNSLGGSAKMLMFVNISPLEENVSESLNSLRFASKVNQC

KIFC3 = target: T2, KIFC3 (Homo sapiens, UniProt Q9BVG8); test: X-ray crystal structure, […] A; details: Mg2+; nucleotide-binding cleft; no added nucleotide stated; pH 7.5; 18 °C
T2 construct: motor domain K443-L770, p28a-LIC (EF442785 is printed beside the vector), E. coli BL21-CodonPlus (DE3)-RIL, HisTrap purified
T2 sequence (Q9BVG8 443-770): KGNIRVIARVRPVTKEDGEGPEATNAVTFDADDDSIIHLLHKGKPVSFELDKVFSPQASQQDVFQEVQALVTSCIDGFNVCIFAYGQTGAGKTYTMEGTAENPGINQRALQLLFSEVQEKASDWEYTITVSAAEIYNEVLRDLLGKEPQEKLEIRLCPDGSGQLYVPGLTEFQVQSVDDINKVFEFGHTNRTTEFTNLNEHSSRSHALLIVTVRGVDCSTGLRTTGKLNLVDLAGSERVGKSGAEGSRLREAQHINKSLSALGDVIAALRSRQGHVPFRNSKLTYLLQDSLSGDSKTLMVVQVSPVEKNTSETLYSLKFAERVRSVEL

SMILES: Nc1ncnc2c1ncn2[C@@H]1O[C@H](COP(=O)(O)OP(=O)(O)O)[C@@H](O)[C@H]1O [ADP]
- X-ray crystal structure, 2.25 A (KIFC1): Both proteins were crystallized bound to Mg-ADP and are reported here for the first time
- X-ray crystal structure, 1.85 A (KIFC3): Both proteins were crystallized bound to Mg-ADP and are reported here for the first time
